# Data reported in publication PMC7407672 (Cells, 2020).
# Key:
# [1] = system: LS174T-hPXR cells; assay: MTT proliferation of LS174T-hPXR cells; assay type: cell-based, human
# Description: (§1) We developed a new proliferation test that we called the P-screen to measure the effects of compounds with PXR activity on the growth of LS174T-hPXR cells. This test uses the same principle as that for E-screen that was used for measuring the effects of estrogens on the proliferation of MCF-7 breast cancer cells. […] The medium was then removed, and cells were treated with increasing concentrations of the different compounds for 7 days. Medium was removed, and 0.1 mL of MTT solution (0.5 mg/mL) was added to each well. The MTT-containing medium was removed 4 h after incubation, and DMSO was added to each well. After shaking, the plates were read in absorbance at 540 nm. Results were expressed as percentage of proliferation with respect to the hormone-free control (100%). Data were obtained by dose–response curves plotted as percentage of proliferation as a function of concentrations.
# [2] = system: LS174T-hPXR cells; assay: LS174T-hPXR proliferation assay (P-screen) after SPA70 pretreatment; assay type: cell-based, human; details: pretreated with SPA70 100 nM; 7 days; read-out: potency (EC50) on proliferation
# Description: as §1
# [3] = system: hPXR target genes (CYP3A4, ABCG2, FGF19) in LS174T-hPXR cells; assay: RT-qPCR of hPXR target genes in LS174T-hPXR cells; assay type: cell-based, human
# Description: (§2) Total RNA was isolated and purified using “Zymo Research—Quick RNA mini prep” kit for LS174T-hPXR cells and using Trizol reagent (Thermo Fisher Scientific, Illkirch-Graffenstaden, France) for primary human hepatocytes and HepaRG according to the manufacturer’s protocol. The concentration and the purity of isolated RNA were measured using a spectrophotometer NanoVue (GE health care life sciences, Velizy-Villacoublay, France). Reverse transcription was performed with the qScript cDNA SuperMix (VWR, Fontenay-sous-Bois, France) for LS174-hPXR and HepaRG cells and using a random hexaprimer and the MMLV Reverse Transcriptase Kit (Life Technologies) for primary human hepatocytes. Quantitative polymerase chain reactions were performed using SYBR green (Qiagen, Les Ulis, France) and specific primers (Supplementary Table S2) with the LightCycler®-480 real-time PCR system (Roche Diagnostics, Meylan, France). The relative amount of RNA was calculated with the 2^ΔΔCT method, and gene expression was normalized using GAPDH or RPLP0. In Figure 5AB, the level of expression was compared with the mean level of the corresponding gene expression in DMSO-treated cells and expressed as n-fold ratio.
# [4] = system: CYP3A4 and CYP2B6 genes in primary human hepatocytes; assay: RT-qPCR of hPXR target genes in primary human hepatocytes; assay type: cell-based; details: three donors, 48 h
# Excerpt: Liver samples were obtained from the Biologic Resource Center of Montpellier University Hospital (CRB-CHUM; http://www.chumontpellier.fr; Biobank ID: BB-0033-00031), and this study benefitted from the expertise of Dr. Benjamin Rivière (hepatogastroenterology sample collection) and Dr. Edouard Tuaillon (CRB-CHUM manager). Samples were obtained from livers of adult patients who underwent liver resections for medical reasons unrelated to our research program, or from anonymous donors when the liver was considered unsuitable for organ transplantation. The use of human specimens for scientific purposes was approved by the French National Ethics Committee. Written or oral informed consent was obtained from each patient or family prior to surgery. The clinical characteristics of the liver donors are presented in Supplementary Table S2. Hepatocytes were isolated by using a two-step perfusion protocol and cultured as described previously.
# as §2
# [5] = target: T1, GAL4(DBD)-mouse PXR(LBD) (Mus musculus, UniProt O54915); assay: luciferase reporter transactivation in HG5LN GAL4-mPXR cells; assay type: cell-based; details: dabrafenib, SR12813, PCN 3 μM; clotrimazol 1 μM
# T1 construct: together with the pSG5-GAL4(DBD)-h/m/zfPXR(LBD)-puro plasmids; expressed in transfected cells; host or cells: HeLa (HG5LN)
# T1 sequence (O54915 143-430 limits assumed): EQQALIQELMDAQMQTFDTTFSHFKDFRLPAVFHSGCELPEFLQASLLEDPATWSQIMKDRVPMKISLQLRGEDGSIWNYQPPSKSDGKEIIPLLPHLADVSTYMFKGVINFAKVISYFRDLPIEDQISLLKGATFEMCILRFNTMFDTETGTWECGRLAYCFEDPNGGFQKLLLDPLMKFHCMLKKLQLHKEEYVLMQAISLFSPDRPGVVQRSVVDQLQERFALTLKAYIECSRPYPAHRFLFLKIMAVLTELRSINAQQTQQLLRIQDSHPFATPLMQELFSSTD
# Excerpt: The different reporter cell lines used in this study are summarized in Supplementary Table S1. HG5LN GAL4-m/zfPXR cells were obtained as previously reported for HG5LN GAL4-hPXR cells. Briefly, Hela cells were stably transfected with the GAL4RE5-βGlob-Luc-SVNeo plasmid alone or together with the pSG5-GAL4(DBD)-h/m/zfPXR(LBD)-puro plasmids leading to the HG5LN and HG5LN-h/m/zfPXR cell lines, respectively. HG5LN GAL4-hCAR and GAL4-hCAR-APYLT cells were obtained in the same way.
compound,measurement,setting,value
SPA70,effect on agonist-activated proliferation,[1]; SPA70 3 μM with 0.3 μM SR12813 or 0.3 μM dabrafenib,abrogated
same,effect on basal proliferation,"[1]; SPA70 3 μM, 7 days",significantly reduced
CCOP(=O)(OCC)C(=Cc1cc(C(C)(C)C)c(O)c(C(C)(C)C)c1)P(=O)(OCC)OCC [SR12813],EC50,[2],0.038 µM
same,ABCG2 expression increase,[3]; 24 h,12 fold
same,CYP3A4 expression increase,[3]; 24 h,190 fold
same,concentration of maximal induction of CYP3A4 expression,[3]; 24 h,1000 nM
same,FGF19 expression induction,[3]; highest concentration used (3 µM),4 fold
same,induction of CYP2B6 gene expression,[4],significantly induce
same,induction of CYP3A4 gene expression,[4],significantly induce
"CC(=O)[C@H]1[C@H](C#N)C[C@H]2[C@@H]3CC=C4C[C@@H](O)CC[C@]4(C)[C@H]3CC[C@@]21C [PCN, Pregnenolone 16 alpha-carbonitrile]",activation of mouse PXR LBD (luciferase),[5],Specific agonist effects
